Target: Transient receptor potential cation channel subfamily V member 1 (Homo sapiens, UniProt Q8NER1)
Experiment: Antagonist activity at human TRPV1 expressed in CHO cells assessed as inhibition of capsaicin-induced increase in intracellular Ca2+ level by FLIPR assay

Transient receptor potential cation channel subfamily V member 1, sequence (Q8NER1 whole entry): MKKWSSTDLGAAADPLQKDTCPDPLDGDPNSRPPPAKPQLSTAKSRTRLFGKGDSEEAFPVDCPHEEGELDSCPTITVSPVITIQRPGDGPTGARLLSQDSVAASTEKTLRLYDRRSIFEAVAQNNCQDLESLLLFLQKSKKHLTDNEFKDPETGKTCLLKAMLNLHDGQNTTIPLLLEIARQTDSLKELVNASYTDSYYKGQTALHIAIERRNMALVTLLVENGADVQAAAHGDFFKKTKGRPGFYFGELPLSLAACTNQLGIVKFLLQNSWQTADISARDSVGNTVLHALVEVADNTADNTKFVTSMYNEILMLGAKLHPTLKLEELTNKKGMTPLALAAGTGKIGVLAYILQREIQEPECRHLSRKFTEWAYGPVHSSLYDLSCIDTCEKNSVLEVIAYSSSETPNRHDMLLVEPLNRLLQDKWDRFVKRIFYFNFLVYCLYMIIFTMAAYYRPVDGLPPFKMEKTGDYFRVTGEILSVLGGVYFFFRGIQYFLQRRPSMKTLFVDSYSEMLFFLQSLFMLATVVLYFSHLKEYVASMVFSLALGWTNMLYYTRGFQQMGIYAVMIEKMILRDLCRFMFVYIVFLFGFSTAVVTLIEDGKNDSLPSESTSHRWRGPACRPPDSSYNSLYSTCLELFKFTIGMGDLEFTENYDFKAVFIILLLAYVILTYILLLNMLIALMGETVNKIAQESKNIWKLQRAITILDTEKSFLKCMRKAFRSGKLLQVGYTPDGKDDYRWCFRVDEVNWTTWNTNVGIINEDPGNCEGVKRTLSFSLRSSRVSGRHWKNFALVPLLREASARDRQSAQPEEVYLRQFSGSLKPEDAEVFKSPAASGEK

Compound | Ki [pM]
CC1CC=C(c2nc(C(F)(F)F)ccc2CNC(=O)C(C)c2ccc(NS(C)(=O)=O)c(F)c2)CC1 (stereo not drawn) | 300
CCC1CC=C(c2nc(C(F)(F)F)ccc2CNC(=O)C(C)c2ccc(NS(C)(=O)=O)c(F)c2)CC1 (stereo not drawn) | 100
CC(C(=O)NCc1ccc(C(F)(F)F)nc1C1=C[C@H](C)CCC1)c1ccc(NS(C)(=O)=O)c(F)c1 (stereo partly drawn) | 100

— BindingDB's records for doi:10.1016/j.bmcl.2014.05.074 (Seoul National University, 2014)
